This is an account of results in patent publication US9173869B2, “Mediators of hedgehog signaling pathways, compositions and uses related thereto” (CURIS, INC., priority 1999, dated 2015).

Assay [1] deals with gli-1 mRNA in ptc-null cells. The experiment in a line: Ptc-null assay (RT-PCR / quantitative real-time PCR of gli-1 mRNA). The assay is classed as cell-based, mouse. Conditions: ptc-null cells cultured 3 days, 1 μM of test compound, compared with vehicle. The method, then:
Ptc-null cells were cultured for 3 days in the presence of vehicle; jervine, a known Patched pathway antagonist (i) used here as a positive control; or 1 μM of a test compound. Total ribonucleic acid (RNA) was isolated from the cells and used for reverse transcriptase-polymerase chain reaction (RT-PCR). […] The gli-1 and actin mRNA samples were then loaded on 1.5% agarose gel and were detected by staining with ethidium bromide. The same samples were analyzed by the quantitative real-time polymerase chain reaction method to quantify the levels of gli-1 mRNA.
(In general: Quantitative PCR measures a nucleic acid by following its amplification.)

Assay [2] concerns ptc-1 lacZ reporter gene expression in lung explants. The assay can be described thus: E12.5 ptc-1 (d11) lacZ lung explant culture, lacZ staining. Format: cell-based, mouse. Conditions: lung explants grown 48 hrs, versus untreated control. As to the method: In yet another experiment, E12.5 old ptc-1 (d11) lacZ lungs were harvested and transgenic embryos identified by lacZ detection using tails. Lung explants were grown submerged in mouse explant medium (DMEM based, additives optimized for the culture of mouse lungs) for 48 hrs, fixed in lacZ fixative, rinsed and stained for lacZ O/N at 37° C. Control tissue was untreated, while test tissue was treated with 11. Results are depicted in FIG. 34: (A) Untreated control. Strong lacZ expression can be observed in distal and proximal mesenchyme.

The test system of a further assay is murine BCC lesions. The assay can be described thus: Cultured skin punches with BCC lesions from UV-irradiated Ptc-knockout heterozygote mouse (X-gal staining). The assay is classed as cell-based. As to the method:
Mouse 456 is a Ptc-knockout heterozygote that received UV irradiation for 6 months. The mouse developed many small BCC lesions, which were blue after X-gal staining. The mouse was sacrificed and the skin was excised with a 2 mm skin punch. Those skin punches were then cultured for 6 days. […] The effect was more obvious when 10 μM of 11 was added to the culture medium instead of 5 μM of 11.

Assay [3] has as its system Hedgehog pathway (Shh-induced Gli-transcription activity) in 10T1/2(s12) cells. The assay can be described thus: Gli-Luc assay (high-throughput screening, Hedgehog-responsive luciferase reporter). Format: cell-based. As to conditions: Gli-Luc response, OCT-SHH 0.3 μg/ml, about 24 h. The method, then: Compounds to be tested are dissolved in DMSO to a concentration of 10 mM, and stored at −20° C. To activate the Hedgehog pathway in the assay cells, an octylated (lipid-modified) form of the N-terminal fragment of the Sonic Hedgehog protein (OCT-SHH) is used. This N-terminal SHH fragment is produced bacterially. The octylation involves reaction of the N-terminal fragment, via its amino-terminal cysteine moiety, with octyl maleimide.
Compounds may be tested in the “Gli-Luc” assay below, using the cell line 10T(s12), wherein the cells contain a Hedgehog-responsive reporter construct utilizing Luciferase as the reporter gene. In this way, Hedgehog pathway signaling activity can be measured via the Gli-Luc response.
10t1/2(s12) cells are plated in a 96-well micro-titer plate (MTP) at 20,000 cells/well in full medium [DMEM with 10% FBS]. Then plates are placed in the incubator for incubation overnight (O/N), at 37° C. and 5% CO2. After 24 h, the medium is replaced with Luciferase-assay medium (DMEM with 0.5% FBS). Compounds are thawed and diluted in assay medium at 3:1000 (about 300-fold) resulting in a starting concentration of about 30 μM.
Subsequently, 150 μl of each 30 μM sample is added to the first wells (in triplicate). The MTP samples are then diluted at 3-fold dilutions to a total of seven wells, ultimately resulting in a regiment of seven dilutions in triplicate, for each compound. Next, the protein ligand OCT-SHH is diluted in Luciferase-assay medium and added to each well at a final concentration of 0.3 μg/ml. Plates are then returned to the incubator for further incubation O/N, at 37° C. and 5% CO2. After about 24 h, plates are removed from the incubator and the medium is aspirated/discarded. Wells are washed once with assay buffer [PBS+1 mM Mg^2+ and 1 mM Ca^2+]. Then 50 μl of assay buffer is added to each well. The Luciferase assay reagent is prepared as described by the vendor (LucLite kit from Packard), and 50 μl is added to each well. Plates are incubated at room temperature (RT) for about 30 minutes after which the signals are read, again at RT, on a Topcount (Packard).
(In general: Reporter assays use an easily measured gene product as a stand-in for the process of interest.)

The term IC50 denotes the midpoint of a concentration-inhibition curve. The low end stands for inhibition by little substance, the high end for a need for much substance.

A value given as a limit tells only on which side of the number the result lay.

On to `CC(c1nc2ccccc2c(=O)n1-c1ccc(F)cc1)N(C)C(=O)Nc1cccc(C(F)(F)F)c1` (centres unmarked) [Compound 11, 2-{1′-[N-(3″-trifluoromethylphenylcarbamoyl)-N-methyl-amino]ethyl}-3-(4′″fluorophenyl)-quinazolin-4-one], for which, in assay [1], the “expression of gli-1” value is listed as “no significant decrease”. The “lacZ reporter gene expression” value in assay [2] is “significantly decreased reporter gene expression”. In addition, in the assay with murine BCC lesions (10 μM versus 5 μM in culture medium, 6 days), the “effect on BCC lesions at 10 μM instead of 5 μM” value was “more obvious”. Moreover, the “number and size of BCC lesions (blue spots)” value in the assay with murine BCC lesions (skin punches of mouse 456 cultured for 6 days, compared to vehicle (DMSO), 5 or 10 μM) was “can decrease the number and size of BCC lesions”. Moreover, the IC50 in assay [3] was under 5 µM.
